Test results: patent publication US20220274979A1 (Bayer Pharma Aktiengesellschaft, priority 2018, published 2022)
pIC50: −log10 of the molar value.

Molecular target: T1, Epidermal Growth Factor Receptor (EGFR) (Homo sapiens, UniProt P00533)
T1 construct: purchased Sigma-Aldrich E3641
Assay: EGFR kinase assay (TR-FRET)
Assay type: biochemical
Conditions: 10 μM ATP; read-out: EGFR kinase inhibition IC50
How it was run: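 EGFR purified from A431 cells pre-incubated 15 min with compound, then reacted 20 min at 22 °C with 10 μM ATP and 1 μM biotinylated peptide (final) in HEPES pH 7.0 with Mg2+/Mn2+. Phosphopeptide detected by TR-FRET (Tb anti-phosphotyrosine/streptavidin-XL665), 665/620 nm emission ratio.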

T1 sequence (P00533 25-1210): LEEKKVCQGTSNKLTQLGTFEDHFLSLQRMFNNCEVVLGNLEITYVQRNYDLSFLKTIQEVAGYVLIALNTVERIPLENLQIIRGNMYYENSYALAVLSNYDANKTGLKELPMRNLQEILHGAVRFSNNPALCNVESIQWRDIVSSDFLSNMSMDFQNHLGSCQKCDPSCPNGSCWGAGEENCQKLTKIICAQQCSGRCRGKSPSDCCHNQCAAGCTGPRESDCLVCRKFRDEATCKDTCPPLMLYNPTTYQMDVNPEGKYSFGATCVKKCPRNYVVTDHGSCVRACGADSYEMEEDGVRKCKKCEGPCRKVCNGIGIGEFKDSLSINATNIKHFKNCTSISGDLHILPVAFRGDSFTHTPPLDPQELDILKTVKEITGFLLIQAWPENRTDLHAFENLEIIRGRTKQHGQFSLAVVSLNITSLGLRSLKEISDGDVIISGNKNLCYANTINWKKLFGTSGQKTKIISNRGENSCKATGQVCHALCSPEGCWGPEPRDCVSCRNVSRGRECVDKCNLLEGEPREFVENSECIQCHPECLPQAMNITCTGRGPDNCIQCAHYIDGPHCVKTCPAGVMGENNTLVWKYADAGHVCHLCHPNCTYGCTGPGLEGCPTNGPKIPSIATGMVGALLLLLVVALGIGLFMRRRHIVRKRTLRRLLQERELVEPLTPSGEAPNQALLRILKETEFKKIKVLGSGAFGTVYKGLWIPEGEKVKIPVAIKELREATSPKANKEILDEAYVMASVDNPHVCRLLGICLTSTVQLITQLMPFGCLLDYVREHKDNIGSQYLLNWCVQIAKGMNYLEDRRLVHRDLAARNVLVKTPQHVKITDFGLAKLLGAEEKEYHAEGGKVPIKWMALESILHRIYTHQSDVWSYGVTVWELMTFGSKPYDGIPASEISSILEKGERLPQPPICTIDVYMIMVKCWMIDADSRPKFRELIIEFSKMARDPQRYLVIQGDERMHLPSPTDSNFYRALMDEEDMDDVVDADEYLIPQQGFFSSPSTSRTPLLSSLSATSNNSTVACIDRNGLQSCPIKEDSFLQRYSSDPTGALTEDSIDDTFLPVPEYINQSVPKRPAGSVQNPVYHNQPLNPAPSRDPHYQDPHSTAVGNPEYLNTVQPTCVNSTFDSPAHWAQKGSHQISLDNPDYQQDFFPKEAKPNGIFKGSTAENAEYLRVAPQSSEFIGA

Compound	pIC50
Cc1nc(N[C@H](C)c2cccc(Br)c2)c2cc(NCCS(C)(=O)=O)ncc2n1 [Example 83]	< 4.70
Cc1nc(N[C@H](C)c2cccc(Br)c2)c2cc(NCCn3ccnc3)ncc2n1 [Example 84, N4-[(1R)-1-(3-bromophenyl)ethyl]-N6-[2-(1H-imidazol-1-yl)ethyl]-2-methylpyrido[3,4-d]pyrimidine-4,6-diamine]	< 4.70
Cc1nc(NC(C)c2ccc(-c3ccccc3CN(C)C)s2)c2cc(NCC3CCNC(=O)C3)ncc2n1 (stereo not drawn) [Example 86, 4-{[(4-{[1-(5-{2-[(dimethylamino)methyl]phenyl}thiophen-2-yl)ethyl]amino}-2-methylpyrido[3,4-d]pyrimidin-6-yl)amino]methyl}piperidin-2-one]	< 4.70
Cc1nc(NC(C)c2ccc(-c3ccccc3CN(C)C)s2)c2cc(N3CC(NC(=O)CCCn4c(-c5ccccn5)nc(C)c4C)C3)ncc2n1 (stereo not drawn) [Example 87, N-[1-(4-{[1-(5-{2-[(dimethylamino)methyl]phenyl}thiophen-2-yl)ethyl]amino}-2-methylpyrido[3,4-d]pyrimidin-6-yl)azetidin-3-yl]-4-[4,5-dimethyl-2-(pyridin-2-yl)-1H-imidazol-1-yl]butanamide]	< 4.70
Cc1nc(NC(C)c2ccc(-c3ccccc3CN(C)C)s2)c2cc(N3CC(NC(=O)c4ccccc4)C3)ncc2n1 (stereo not drawn) [Example 88, N-[1-(4-{[1-(5-{2-[(dimethylamino)methyl]phenyl}thiophen-2-yl)ethyl]amino}-2-methylpyrido[3,4-d]pyrimidin-6-yl)azetidin-3-yl]benzamide]	< 4.70
Cc1nc(NC(C)c2ccc(-c3ccccc3CN(C)C)s2)c2cc(N3CC(NC(=O)Cc4ccccc4)C3)ncc2n1 (stereo not drawn) [Example 89, N-[1-(4-{[1-(5-{2-[(dimethylamino)methyl]phenyl}thiophen-2-yl)ethyl]amino}-2-methylpyrido[3,4-d]pyrimidin-6-yl)azetidin-3-yl]-2-phenylacetamide]	< 4.70
Cc1nc(NC(C)c2ccc(-c3ccccc3CN(C)C)s2)c2cc(N3CC(NC(=O)C4CCCCC4)C3)ncc2n1 (stereo not drawn) [Example 90, N-[1-(4-{[1-(5-{2-[(dimethylamino)methyl]phenyl}thiophen-2-yl)ethyl]amino}-2-methylpyrido[3,4-d]pyrimidin-6-yl)azetidin-3-yl]cyclohexanecarboxamide]	< 4.70
Cc1nc(NC(C)c2ccc(-c3ccccc3CN(C)C)s2)c2cc(N3CC(NC(=O)CC4CC4)C3)ncc2n1 (stereo not drawn) [Example 91, 2-cyclopropyl-N-[1-(4-{[1-(5-{2-[(dimethylamino)methyl]phenyl}thiophen-2-yl)ethyl]amino}-2-methylpyrido[3,4-d]pyrimidin-6-yl)azetidin-3-yl]acetamide]	< 4.70
Cc1nc(NC(C)c2ccc(-c3ccccc3CN(C)C)s2)c2cc(N3CC(N)C3)ncc2n1 (stereo not drawn) [Example 93, 6-(3-aminoazetidin-1-yl)-N-[1-(5-{2-[(dimethylamino)methyl]phenyl}thiophen-2-yl)ethyl]-2-methylpyrido[3,4-d]pyrimidin-4-amine]	< 4.70
Cc1nc(NC(C)c2ccc(-c3ccccc3CN(C)C)s2)c2cc(N3CC(NS(=O)(=O)c4ccccc4)C3)ncc2n1 (stereo not drawn) [Example 94, N-[1-(4-{[1-(5-{2-[(dimethylamino)methyl]phenyl}thiophen-2-yl)ethyl]amino}-2-methylpyrido[3,4-d]pyrimidin-6-yl)azetidin-3-yl]benzenesulfonamide]	< 4.70
Cc1nc(NC(C)c2ccc(-c3ccccc3CN(C)C)s2)c2cc(N3CC(NS(=O)(=O)Cc4ccccc4)C3)ncc2n1 (stereo not drawn) [Example 95, N-[1-(4-{[1-(5-{2-[(dimethylamino)methyl]phenyl}thiophen-2-yl)ethyl]amino}-2-methylpyrido[3,4-d]pyrimidin-6-yl)azetidin-3-yl]-1-phenylmethanesulfonamide]	< 4.70
Cc1nc(NC(C)c2ccc(-c3ccccc3CN(C)C)s2)c2cc(N3CC(NC(=O)Nc4ccccc4)C3)ncc2n1 (stereo not drawn) [Example 96, 1-[1-(4-{[1-(5-{2-[(dimethylamino)methyl]phenyl}thiophen-2-yl)ethyl]amino}-2-methylpyrido[3,4-d]pyrimidin-6-yl)azetidin-3-yl]-3-phenylurea]	< 4.70
